Experimental data reported in ChEMBL document CHEMBL3865812, “Selective killing of cancer cells with triterpenoic acid amides - The substantial role of an aromatic moiety alignment” (Eur J Med Chem, 2016).

Tests used:
[1] = Solubility of compound in water; format: physicochemical; conditions: buffer
[2] = Cytotoxicity against human A549 cells measured after 96 hrs by SRB assay; format: functional, cell-based; conditions: A549, 96 h
[3] = Cytotoxicity against mouse NIH/3T3 cells measured after 96 hrs by SRB assay; format: toxicity, NIH3T3
[4] = Cytotoxicity against human HT-29 cells measured after 96 hrs by SRB assay; format: functional, cell-based; conditions: HT-29, 96 h
[5] = Cytotoxicity against human 8505C cells measured after 96 hrs by SRB assay; format: functional, cell-based
[6] = Cytotoxicity against human 518A2 cells measured after 96 hrs by SRB assay; format: functional, cell-based; conditions: 518A2, 96 h
[7] = Cytotoxicity against human A2780 cells measured after 96 hrs by SRB assay; format: functional, cell-based; conditions: A2780, 96 h
[8] = Cytotoxicity against human MCF7 cells measured after 96 hrs by SRB assay; format: functional, cell-based; conditions: MCF7, 96 h

solubility [1] | SMILES | EC50 [2] [µM] | EC50 at 96 h [3] [µM] | EC50 [4] [µM] | EC50 [5] [µM] | EC50 [6] [µM] | EC50 [7] [µM] | EC50 [8] [µM]
Insoluble | CC(=O)O[C@H]1C[C@]2(C)[C@H]3CC=C4[C@@H]5[C@@H](C)[C@H](C)CC[C@]5(C(=O)Nc5ccnc6ccccc56)CC[C@@]4(C)[C@]3(C)CC[C@H]2C(C)(C)[C@H]1OC(C)=O | 8.2 | 5.2 | 5.5 | 6.6 | 6.4 | 3.5 | 4
 | CC(=O)O[C@H]1C[C@]2(C)[C@H]3CC=C4[C@@H]5[C@@H](C)[C@H](C)CC[C@]5(C(=O)Nc5cccc6ncccc56)CC[C@@]4(C)[C@]3(C)CC[C@H]2C(C)(C)[C@H]1OC(C)=O | 3.7 | > 60 | 3.6 | 3.2 | 2 | 2.7 | 5.5
 | CC(=O)O[C@H]1C[C@]2(C)[C@H]3CC=C4[C@@H]5CC(C)(C)CC[C@]5(C(=O)Nc5ccncc5)CC[C@@]4(C)[C@]3(C)CC[C@H]2C(C)(C)[C@H]1OC(C)=O | 4 | 1.8 | 2.7 | 4.1 | 4.2 | 1.6 | 3.1
Insoluble | CC(=O)O[C@H]1C[C@]2(C)[C@H]3CC=C4[C@@H]5CC(C)(C)CC[C@]5(C(=O)Nc5cccc6cccnc56)CC[C@@]4(C)[C@]3(C)CC[C@H]2C(C)(C)[C@H]1OC(C)=O | > 30 | > 30 | > 30 | 16.1 | 6.2 | 5.1 | 24.6
 | CC(=O)O[C@H]1C[C@]2(C)[C@H]3CC=C4[C@@H]5[C@@H](C)[C@H](C)CC[C@]5(C(=O)Nc5cccnc5)CC[C@@]4(C)[C@]3(C)CC[C@H]2C(C)(C)[C@H]1OC(C)=O | 3.5 | 4.2 | 3.2 | 2.7 | 2 | 2 | 3.5
 | C[C@H]1[C@H](C)CC[C@]2(C(=O)O)CC[C@]3(C)C(=CC[C@@H]4[C@@]5(C)C[C@H](O)[C@H](O)C(C)(C)[C@@H]5CC[C@]43C)[C@H]12 | > 30 | > 30 | > 30 | > 30 | > 30 | 24.9 | 29.1
 | CC(=O)O[C@H]1C[C@]2(C)[C@H]3CC=C4[C@@H]5CC(C)(C)CC[C@]5(C(=O)Nc5cccnc5)CC[C@@]4(C)[C@]3(C)CC[C@H]2C(C)(C)[C@H]1OC(C)=O | 2.8 | 2.4 | 2.2 | 2.3 | 1.7 | 0.9 | 2
Insoluble | CC(=O)O[C@H]1C[C@]2(C)[C@H]3CC=C4[C@@H]5[C@@H](C)[C@H](C)CC[C@]5(C(=O)Nc5cccc6cccnc56)CC[C@@]4(C)[C@]3(C)CC[C@H]2C(C)(C)[C@H]1OC(C)=O | > 30 | > 30 | > 30 | > 30 | 13.3 | 6.7 | > 30
Insoluble | CC(=O)O[C@H]1C[C@]2(C)[C@H]3CC=C4[C@@H]5[C@@H](C)[C@H](C)CC[C@]5(C(=O)Nc5cnc6ccccc6c5)CC[C@@]4(C)[C@]3(C)CC[C@H]2C(C)(C)[C@H]1OC(C)=O | 3.4 | 2.2 | 6.5 | 3.1 | 2.5 | 2.8 | 3.2
 | CC(=O)O[C@H]1CC[C@]2(C)[C@H]3CC=C4[C@@H]5[C@@H](C)[C@H](C)CC[C@]5(C(=O)Nc5cccc6ncccc56)CC[C@@]4(C)[C@]3(C)CC[C@H]2C1(C)C | 5.1 | 3.5 | 5.1 | 3.5 | 3.5 | 4.4 | 3.9
 | CC1(C)CC[C@]2(C(=O)O)CC[C@]3(C)C(=CC[C@@H]4[C@@]5(C)C[C@H](O)[C@H](O)C(C)(C)[C@@H]5CC[C@]43C)[C@@H]2C1 [AUGUSTIC ACID] |  | > 30 | > 30 |  | 25.7 |  | 25.1
Insoluble | CC(=O)O[C@H]1C[C@]2(C)[C@H]3CC=C4[C@@H]5[C@@H](C)[C@H](C)CC[C@]5(C(=O)Nc5ccc6cccnc6c5)CC[C@@]4(C)[C@]3(C)CC[C@H]2C(C)(C)[C@H]1OC(C)=O | 3.1 | 1.8 | 2 | 2.5 | 2.4 | 1.8 | 1.6
 | CC(=O)O[C@H]1C[C@]2(C)[C@H]3CC=C4[C@@H]5CC(C)(C)CC[C@]5(C(=O)O)CC[C@@]4(C)[C@]3(C)CC[C@H]2C(C)(C)[C@H]1OC(C)=O |  | > 30 | 23.1 |  | 13.8 |  | 16.1
 | CC(=O)O[C@H]1C[C@]2(C)[C@H]3CC=C4[C@@H]5[C@@H](C)[C@H](C)CC[C@]5(C(=O)Nc5ccncc5)CC[C@@]4(C)[C@]3(C)CC[C@H]2C(C)(C)[C@H]1OC(C)=O | 10.1 | 5.7 | 9.4 | 8.5 | 8.3 | 8.3 | 9
 | CC(=O)O[C@H]1C[C@]2(C)[C@H]3CC=C4[C@@H]5[C@@H](C)[C@H](C)CC[C@]5(C(=O)O)CC[C@@]4(C)[C@]3(C)CC[C@H]2C(C)(C)[C@H]1OC(C)=O | 15.6 | 12.7 | 16.2 | 15.6 | 17.9 | 17.9 | 10.4
Insoluble | CC(=O)O[C@H]1C[C@]2(C)[C@H]3CC=C4[C@@H]5[C@@H](C)[C@H](C)CC[C@]5(C(=O)Nc5ccc6ncccc6c5)CC[C@@]4(C)[C@]3(C)CC[C@H]2C(C)(C)[C@H]1OC(C)=O | 5.3 | 0.9 | 9.2 | 4.3 | 4.2 | 4.2 | 6.5
Insoluble | CC(=O)O[C@H]1C[C@]2(C)[C@H]3CC=C4[C@@H]5CC(C)(C)CC[C@]5(C(=O)Nc5ccc6cccnc6c5)CC[C@@]4(C)[C@]3(C)CC[C@H]2C(C)(C)[C@H]1OC(C)=O | 2.6 | 0.7 | 1.3 | 1.6 | 1.6 | 1 | 1.4
